The test system of assay [1] is CD-1 mice. In words: Subcutaneous Pentylenetetrazole (PTZ) Seizure Procedure. The settings on record: Mus musculus; PTZ 85 mg/kg s.c., compound p.o. 30 minutes prior to PTZ injection, linear regression; read-out: ED50 (dose at which 50% of the mice were protected from tonic seizures). It counts as in vivo. How it is done: (§1) Adult, male, CD-1 mice (22-25 grams) were obtained from Charles River Laboratories (Portage, Mich.) and housed at Abbott Laboratories (Abbott Park) under standard lighting conditions of 12 hours on/12 hours off, with lights on at 6 a.m. Food and water were provided ad libitum and mice weighed 25-35 grams at the time of testing.
(§2) Compounds were prepared for oral administration by suspending them in a vehicle of 100 μL Tween® 80 per mL hydroxypropyl methylcellulose (2 mg/mL, Abbott Laboratories). Compound solutions were administered at a volume of 10 mL/kg, p.o.
The method used was similar to that of E. A. Swinyard, General principles: Experimental selection, quantification and evaluation of anti-convulsants, Anti-epileptic Drugs, Third Edition, R. Levey, et al., Editors. 1989, Raven Press Ltd: New York. During the experiment the mice were housed individually in clear polycarbonate cages for observation. […] Seizures were induced by the subcutaneous injection of pentylenetetrazole (PTZ, 85 mg/kg) just below the nape of the neck. […] A total of 20 mice were used in each group. The ED50for the compounds were calculated using linear regression and represent the dose at which 50% of the mice were protected from tonic seizures.

Assay [2] deals with CD-1 mice. The experiment in a line: Maximal Electroshock Procedure. It counts as in vivo. The settings on record: Mus musculus, po, p.o. 30 minutes prior to electrical stimulation, PROBIT analysis, read-out: ED50 (dose at which 50% of the mice were protected from tonic seizures). How it is done:
as §1, §2
The method used was similar to that of E. A. Swinyard, General principles: Experimental selection, quantification and evaluation of anti-convulsants, Anti-epileptic Drugs, Third Edition, R. Levey, et al., Editors. 1989, Raven Press Ltd: New York. Mice were pretreated orally with compounds of the present invention 30 minutes prior to electrical stimulation. Electrical stimulation consisted of pulsed electrical current (50 mA, 0.4 second duration, pulse width 0.5 msec, 60 pulses/sec) applied via corneal electrodes to induce seizure. The stimulation was delivered with an ECT Unit (Ugo Basile #7801). […] The percent protection from tonic seizures was calculated by dividing the number of protected mice by the total number in the group. […]

SMILES strings stand for the structures.

In the case of `CCCC(CCC)C(=O)O` [Valproate], the figures for the median effective dose (ED50) with CD-1 mice [1] and with CD-1 mice [2] were 1800 µmol/kg and 1200 µmol/kg, respectively.

For the origin of these results see patent US20040077616A1, “Spirocyclopropyl amides and acids and their therapeutic applications” (priority 2002, published 2004).
